Patent US20240158446A1, “CYCLIC COMPOUND HAVING SELECTIVE INHIBITORY ACTION ON KRAS OVER HRAS AND NRAS” (CHUGAI SEIYAKU KABUSHIKI KAISHA, priority 2021, published 2024)
Where two headings read alike, the source gives them in different places. Where a SMILES comes first, the peptide text is derived from it. Bridges are numbered along the chain shown (N, C = ends). [ ]: non-standard residue; d: D form. The star is where a group is joined. hPhe(3-Cl-4-CF3) = N[C@@H](CCc1ccc(C(F)(F)F)c(Cl)c1)C(=O)O; NPrPhe(4-CF3) = CCCN[C@@H](Cc1ccc(C(F)(F)F)cc1)C(=O)O; NMeGly(cPent) = CN[C@H](C(=O)O)C1CCCC1; Hyp = O=C(O)[C@@H]1C[C@@H](O)CN1; NMeL = CN[C@@H](CC(C)C)C(=O)O; Morpholide = C1CN(*)CCO1; NMeA = CN[C@@H](C)C(=O)O; Ac5c = NC1(C(=O)O)CCCC1; Aze = O=C(O)[C@@H]1CCN1; Ac4c = NC1(C(=O)O)CCC1; Sar = CNCC(=O)O

Assays:
[1] = biological target: GDP-bound KRAS wild-type protein (Homo sapiens, UniProt P01116); experiment: Binding to KRAS by surface plasmon resonance (SPR), Single Cycle Kinetics; conditions: GDP-bound KRAS wild-type protein, read-out: KRAS KD
[2] = biological target: GDP-bound NRAS wild-type protein (Homo sapiens, UniProt P01111); experiment: Binding to NRAS by surface plasmon resonance (SPR), Single Cycle Kinetics; conditions: for NRAS/KRAS (ratio of KD value with respect to NRAS to KD value with respect to KRAS) / NRAS/KRAS (ratio of KD value for NRAS to KD value for KRAS): SPR, GDP-bound NRAS wild-type protein vs GDP-bound KRAS wild-type protein
[3] = biological target: GDP-bound HRAS wild-type protein (Homo sapiens, UniProt P01112); experiment: Binding to HRAS by surface plasmon resonance (SPR), Single Cycle Kinetics; conditions: for HRAS/KRAS (ratio of KD value with respect to HRAS to KD value with respect to KRAS) / HRAS/KRAS (ratio of KD value for HRAS to KD value for KRAS): SPR, GDP-bound HRAS wild-type protein vs GDP-bound KRAS wild-type protein
[4] = SPR Single Cycle Kinetics, 1:1 binding model

GDP-bound KRAS wild-type protein, sequence (P01116 whole entry): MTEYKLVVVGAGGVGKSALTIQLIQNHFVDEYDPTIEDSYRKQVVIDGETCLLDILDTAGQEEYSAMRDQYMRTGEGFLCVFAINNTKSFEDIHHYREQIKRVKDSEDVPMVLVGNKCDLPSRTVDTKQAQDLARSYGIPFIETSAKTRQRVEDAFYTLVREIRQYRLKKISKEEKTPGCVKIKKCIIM
GDP-bound NRAS wild-type protein, sequence (P01111 whole entry): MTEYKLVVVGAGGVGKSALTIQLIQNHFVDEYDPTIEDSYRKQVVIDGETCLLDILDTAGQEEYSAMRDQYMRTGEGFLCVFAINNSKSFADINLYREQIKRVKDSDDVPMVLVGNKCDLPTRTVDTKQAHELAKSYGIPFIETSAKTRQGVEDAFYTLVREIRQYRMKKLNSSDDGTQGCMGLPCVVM
GDP-bound HRAS wild-type protein, sequence (P01112 whole entry): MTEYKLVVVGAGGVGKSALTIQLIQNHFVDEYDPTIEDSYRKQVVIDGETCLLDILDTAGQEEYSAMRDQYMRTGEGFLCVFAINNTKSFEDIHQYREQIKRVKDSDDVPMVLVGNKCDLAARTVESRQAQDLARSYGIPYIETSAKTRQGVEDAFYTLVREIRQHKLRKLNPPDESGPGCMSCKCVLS

| Compound | Kd [1, 4] | Kd ([1]; SPR, Single Cycle Kinetics) | NRAS/KRAS (ratio of KD value with respect to NRAS to KD value with respect to KRAS) [2] | HRAS/KRAS (ratio of KD value with respect to HRAS to KD value with respect to KRAS) [3] | NRAS/KRAS (ratio of KD value for NRAS to KD value for KRAS) [2] | HRAS/KRAS (ratio of KD value for HRAS to KD value for KRAS) [3] | NRAS/KRAS (ratio of KD value with respect to GDP-bound NRAS wild-type protein to KD value with respect to KRAS) ([2]; SPR KD ratio NRAS/KRAS, class symbols) | HRAS/KRAS (ratio of KD value with respect to GDP-bound HRAS wild-type protein to KD value with respect to KRAS) ([3]; SPR KD ratio HRAS/KRAS, class symbols) |
| --- | --- | --- | --- | --- | --- | --- | --- | --- |
| CCO[C@@H]1C[C@H]2C(=O)NC3(CCC3)C(=O)N(C)[C@@H](C3CCCC3)C(=O)N(CCC3CCCC3)[C@H](C(=O)N3CCOCC3)CC(=O)N(C)[C@@H](CC(C)C)C(=O)N[C@@H]([C@@H](C)CC)C(=O)N(C)CC(=O)N(C)[C@H]3CCCCN(C3=O)[C@@H](Cc3ccc(C(F)(F)F)cc3)C(=O)N(C)CC(=O)N[C@@H](CCc3cc(F)c(C(F)(F)F)c(F)c3)C(=O)N2C1 [PP0651] | 600 pM |  | B (a compound having 3 or more and less than 10 is denoted as B) | B (a compound having 3 or more and less than 10 is denoted as B) |  |  |  |  |
| CCCN1C(=O)[C@@H]2CCN2C(=O)[C@H](C)N(C)C(=O)[C@H]([C@@H](C)CC)NC(=O)[C@H](CC(C)C)N(C)C(=O)C[C@@H](C(=O)N(C)C)NC(=O)[C@H](C2CCCC2)N(C)C(=O)C2(CCCC2)NC(=O)[C@@H]2C[C@@H](OCC)CN2C(=O)[C@H](CCc2ccc(C(F)(F)F)c(Cl)c2)NC(=O)CN(C)C(=O)[C@@H]1Cc1ccc(C(F)(F)F)cc1 [PP0383] ([NMeL]I[NMeA][Aze][NPrPhe(4-CF3)][Sar][hPhe(3-Cl-4-CF3)][Hyp](Et)[Ac5c][NMeGly(cPent)]D-NMe2; lactam N-11) | 240 pM |  |  |  | C (A compound having a KD ratio of 0.1 or more and less than 3 is denoted as C) | B (a compound having 3 or more and less than 10 is denoted as B) |  |  |
| CCO[C@@H]1C[C@H]2C(=O)NC3(CC(C)(C)C3)C(=O)N(C)[C@@H](C(CC)CC)C(=O)N(C)[C@H](C(=O)N(C)C)CC(=O)N(C)[C@@H](CC(C)C)C(=O)N[C@@H]([C@@H](C)CC)C(=O)N(C)CC(=O)N(C)[C@H]3C/C=C\CCN(C3=O)[C@@H](Cc3ccc(C(F)(F)F)cc3)C(=O)N(C)CC(=O)N[C@@H](CCc3ccc(Cl)c(Cl)c3)C(=O)N2C1 [PP2176] |  | 470 pM |  |  | AA (a compound having 20 or more is denoted as AA) | A (a compound having 10 or more and less than 20 is denoted as A) |  |  |
| C#CCN1CC(=O)N(C)[C@H]2C/C=C\CCN(C2=O)[C@@H](Cc2ccc(C(F)(F)F)cc2)C(=O)N(C)CC(=O)N[C@@H](CCc2cc(F)c(C(F)(F)F)c(F)c2)C(=O)N2C[C@H](OCC)C[C@H]2C(=O)NC2(CC(C)(C)C2)C(=O)N(C)[C@@H](C2CCCC2)C(=O)N(C)[C@H](C(=O)N(C)C)CC(=O)N(C)[C@@H](CC)C(=O)N[C@@H]([C@@H](C)CC)C1=O [PP2087] |  | 150 pM |  |  | A (a compound having 10 or more and less than 20 is denoted as A) | A (a compound having 10 or more and less than 20 is denoted as A) |  |  |
| CCO[C@@H]1C[C@H]2C(=O)NC3(CCCC3)C(=O)N(C)[C@@H](C3CCCC3)C(=O)N(C)[C@H](C(=O)N(C)C)CC(=O)N(C)[C@@H](CC(C)C)C(=O)N[C@@H]([C@@H](C)CC)C(=O)N(C)CC(=O)N(C)[C@H]3C/C=C\CCN(C3=O)[C@@H](Cc3ccc(C(F)(F)F)cc3)C(=O)N(C)CC(=O)N[C@@H](CCc3ccc(Cl)c(Cl)c3)C(=O)N2C1 [PP2837] | 210 pM |  |  |  |  |  | AA (a compound having 20 or more is denoted as AA) | A (a compound having 10 or more and less than 20 is denoted as A) |
| CC[C@H](C)[C@@H]1NC(=O)[C@H](CC(C)C)N(C)C(=O)C[C@@H](C(=O)N2CCOCC2)N(C)C(=O)[C@H](C2CCCC2)N(C)C(=O)C2(CCCC2)NC(=O)[C@@H]2CCCN2C(=O)[C@H](CCc2ccc(C(F)(F)F)c(Cl)c2)NC(=O)CN(C)C(=O)[C@H](Cc2ccc(C(F)(F)F)cc2)N2CCCC[C@@H](C2=O)N(C)C(=O)CN(C)C1=O [PP0318] | 34 pM |  |  |  | B (a compound having 3 or more and less than 10 is denoted as B) | B (a compound having 3 or more and less than 10 is denoted as B) |  |  |
| CCO[C@@H]1C[C@H]2C(=O)NC3(CC(C)(C)C3)C(=O)N(C)[C@@H](C3CCCC3)C(=O)N(C)[C@H](C(=O)N3CCCCC3)CC(=O)N(C)[C@H]3CCCCCc4ccc(cc4)C[C@@H](C(=O)N(C)CC(=O)N[C@@H](CCc4ccc(C(F)(F)F)c(OC)c4)C(=O)N2C1)N1CC/C=C\C[C@@H](C1=O)N(C)C(=O)CN(C)C(=O)[C@H]([C@@H](C)CC)NC3=O [PP3036, (1S,7S,11R,13S,19S,22S,26S,29S,35S,37Z)-19-cyclopentyl-11-ethoxy-7-[2-[3-methoxy-4-(trifluoromethyl)phenyl]ethyl]-3,3′,3′,18,21,25,31,34-octamethyl-29-[(1S)-1-methylpropyl]-22-(piperidine-1-carbonyl)spiro[3,6,9,15,18,21,25,28,31,34,41-undecazapentacyclo[24.15.10.2^43,46.1^35,41.0^9,13]tetrapentaconta-37,43(53),44,46(52)-tetraene-16,1′-cyclobutane]-2,5,8,14,17,20,24,27,30,33,54-undecone] |  | 170 pM |  |  | A (a compound having 10 or more and less than 20 is denoted as A) | B (a compound having 3 or more and less than 10 is denoted as B) |  |  |
| CCCN1C(=O)CN(C)C(=O)CNC(=O)[C@H]([C@@H](C)CC)NC(=O)[C@H](CC(C)C)N(C)C(=O)C[C@@H](C(=O)N2CCOCC2)NC(=O)[C@H](C2CCCC2)N(C)C(=O)C2(CCC2)NC(=O)[C@@H]2C[C@@H](OCC)CN2C(=O)[C@H](CCc2ccc(C(F)(F)F)c(Cl)c2)NC(=O)CN(C)C(=O)[C@@H]1Cc1ccc(C(F)(F)F)cc1 [PP0330] ([NMeL]IG[Sar][NPrPhe(4-CF3)][Sar][hPhe(3-Cl-4-CF3)][Hyp](Et)[Ac4c][NMeGly(cPent)]D-Morpholide; lactam N-11) | 950 pM |  |  |  | B (a compound having 3 or more and less than 10 is denoted as B) | C (A compound having a KD ratio of 0.1 or more and less than 3 is denoted as C) |  |  |

Second part, led by results:

| Kd [1, 4] | Kd ([1]; SPR, Single Cycle Kinetics) | Compound | NRAS/KRAS (ratio of KD value with respect to NRAS to KD value with respect to KRAS) [2] | HRAS/KRAS (ratio of KD value with respect to HRAS to KD value with respect to KRAS) [3] | NRAS/KRAS (ratio of KD value for NRAS to KD value for KRAS) [2] | HRAS/KRAS (ratio of KD value for HRAS to KD value for KRAS) [3] | NRAS/KRAS (ratio of KD value with respect to GDP-bound NRAS wild-type protein to KD value with respect to KRAS) ([2]; SPR KD ratio NRAS/KRAS, class symbols) | HRAS/KRAS (ratio of KD value with respect to GDP-bound HRAS wild-type protein to KD value with respect to KRAS) ([3]; SPR KD ratio HRAS/KRAS, class symbols) |
| --- | --- | --- | --- | --- | --- | --- | --- | --- |
| 23000 pM |  | CCO[C@@H]1C[C@H]2C(=O)NC3(CCC3)C(=O)N(C)[C@@H](C3CCCC3)C(=O)N(CCc3ccccc3)[C@H](C(=O)N(C)C)CC(=O)N(C)[C@@H](CC)C(=O)N[C@@H]([C@@H](C)CC)C(=O)N(C)CC(=O)N(C)[C@H]3CCCCCN(C3=O)[C@@H](Cc3ccc(C(F)(F)F)cc3)C(=O)N(C)CC(=O)N[C@@H](CCc3cc(F)c(C(F)(F)F)c(F)c3)C(=O)N2C1 [PP0637] | B (a compound having 3 or more and less than 10 is denoted as B) | B (a compound having 3 or more and less than 10 is denoted as B) |  |  |  |  |
| 14 pM |  | CCO[C@@H]1C[C@H]2C(=O)NC3(CCC3)C(=O)N(C)[C@@H](C3CCCC3)C(=O)N(C)[C@H](C(=O)N(C)C)CC(=O)N(C)[C@@H](C)C(=O)N[C@@H]([C@@H](C)CC)C(=O)N(C)CC(=O)N(C)[C@H]3CCCCN(C3=O)[C@@H](Cc3ccc(C(F)(F)F)cc3)C(=O)N(C)CC(=O)N[C@@H](CCc3cc(F)c(C(F)(F)F)c(F)c3)C(=O)N2C1 [PP0587] | C (A compound having a KD ratio of 0.1 or more and less than 3 is denoted as C) | C (A compound having a KD ratio of 0.1 or more and less than 3 is denoted as C) |  |  |  |  |
|  | 230 pM | CCCN1CC(=O)N(C)[C@H]2C/C=C\CCN(C2=O)[C@@H](Cc2ccc(C(F)(F)F)cc2)C(=O)N(C)CC(=O)N[C@@H](CCc2cc(F)c(C(F)(F)F)c(F)c2)C(=O)N2C[C@H](OCC)C[C@H]2C(=O)NC2(CCC2)C(=O)N(C)[C@@H](C2CCCC2)C(=O)N(C)[C@H](C(=O)N(C)C)CC(=O)N(C)[C@@H](CC)C(=O)N[C@@H]([C@@H](C)CC)C1=O [PP1053] |  |  | A (a compound having 10 or more and less than 20 is denoted as A) | A (a compound having 10 or more and less than 20 is denoted as A) |  |  |
|  | 520 pM | CCO[C@@H]1C[C@H]2C(=O)NC3(CCC3)C(=O)N(C)[C@@H](C3CCCC3)C(=O)N(C)[C@H](C(=O)N(C)C)CC(=O)N(C)[C@@H](CC)C(=O)N[C@@H]([C@@H](C)CC)C(=O)N3CC[C@H]3C(=O)N(C)[C@H]3CC(C)=CCN(C3=O)[C@@H](Cc3ccc(C(F)(F)F)cc3)C(=O)N(C)CC(=O)N[C@@H](CCc3cc(F)c(C(F)(F)F)c(F)c3)C(=O)N2C1 [PP1035] |  |  | C (A compound having a KD ratio of 0.1 or more and less than 3 is denoted as C) | C (A compound having a KD ratio of 0.1 or more and less than 3 is denoted as C) |  |  |
| 7.7 pM |  | CC[C@H](C)[C@@H]1NC(=O)[C@H](C)N(C)C(=O)C[C@@H](C(=O)N(C)C)N(C)C(=O)[C@H](C2CCCC2)N(C)C(=O)C2(CCC2)NC(=O)[C@@H]2CC(F)(F)CN2C(=O)[C@H](CCc2cc(F)c(C(F)(F)F)c(F)c2)NC(=O)CN(C)C(=O)[C@H](Cc2ccc(C(F)(F)F)cc2)N2CCCC[C@@H](C2=O)N(C)C(=O)CN(C)C1=O [PP0584] | C (A compound having a KD ratio of 0.1 or more and less than 3 is denoted as C) | C (A compound having a KD ratio of 0.1 or more and less than 3 is denoted as C) |  |  |  |  |
